# Source: patent US8420653B2, “Pyrimidine compounds and their uses” (Orchid Chemicals & Pharmaceuticals Limited, priority 2008, dated 2013)
# Like-named read-outs stand apart in the source and are kept apart here.
# Assays:
# [1] = test system: TNF-α; test: In vitro measurement of TNF-α in human PBMC; assay type: cell-based; conditions: for inhibition at 1 µM: Conc. (1 μM); for inhibition at 10 µM: Conc. (10 μM)
# Protocol: In Vitro Measurement of TNF-α in Human Peripheral Blood Mononuclear Cells
# This assay determines the effect of test compounds on the production of TNF a in human Peripheral Blood Mononuclear Cells (PBMC). Compounds were tested for their ability to inhibit the activity of TNF α in human PBMC. PBMC were isolated from blood (of healthy volunteers) using BD Vacutainer CPT™ (Cell preparation tube, BD Bio Science) and suspended in RPMI medium (Physiol. Res. 52, 593-598, 2003). The test compounds were pre-incubated with PBMC (0.5 million/incubation well) for 15 minutes at 37° C. and then stimulated with Lipopolysaccharide (Escherichia coli: B4; 1 μg/ml) for 18 hours at 37° C. in 5% CO2. The levels of TNF-α in the cell culture medium were estimated using enzyme-linked immunosorbent assay performed in a 96 well format as per the procedure of the manufacturer (Cayman Chemical, Ann Arbor, USA).
# [2] = test system: NCI-H460; test: Anti-cancer screen (MTT), NCI-H460; assay type: cell-based; conditions: Homo sapiens
# Protocol: (§1) Experimental drugs are screened for anti-cancer activity in three cell lines for their GI50, TGI and LC50 values (using 5 concentrations for each compound). The cell lines are maintained in DMEM containing 10% fetal bovine serum. 96 well microtiter plates are inoculated with cells in […] for 24 hours at 37° C., 5% CO2, 95% air and 100% relative humidity. 5000 HCT116 cells/well, 5000 NCIH460 cells/well, 10000 U251 cells/well and 5000 MDAMB231 cells/well are plated. A separate plate with these cell lines is also inoculated to determine cell viability before the addition of the compounds (T0).
# (§2) Following 24-hour incubation, experimental drugs are added to the 96 well plates. Each plate contains one of the above cell lines and the following in triplicate: 5 different concentrations (0.01, 0.1, 1, 10 and 100 μM) of 4 different compounds, appropriate dilutions of a cytotoxic standard and control (untreated) wells. Compounds are dissolved in dimethylsulfoxide (DMSO) to make 20 mM stock solutions, on the day of drug addition and frozen at −20° C. Serial dilutions of these 20 mM stock solutions are made in complete growth medium such that 100 μL of these drug solutions in medium, of final concentrations equaling 0.01, 0.1, 1, 10 and 100 μM can be added to the cells in triplicate. Standard drugs whose anti-cancer activity has been well documented and which are regularly used are doxorubicin and SAHA.
# (§3) Cells are incubated with compounds for 48 hours followed by the addition of 10 μL 3-(4,5-Dimethyl-2-thiazolyl)-2,5-diphenyl-2H-tetrazolium (MTT) solution per well and a subsequent incubation at 37° C., 5% CO2, 95% air and 100% relative humidity, protected from light. After 4 hours, well contents are aspirated carefully followed by addition of 150 μL DMSO per well. Plates are agitated to ensure solution of the formazan crystals in DMSO and absorbance read at 570 nm.
# (§4) Percent growth is calculated for each compound's concentration relative to the control and zero measurement wells (T0; viability right before compound addition). If a test well's O.D. value is greater than the T0 measurement for that cell line % Growth=(test−zero)/(control−zero)×100
# (§5) If a test well's O.D. value is lower than the T0 measurement for that cell line, then: % Growth=(test−zero)/zero×100
# (§6) Plotting % growth versus experimental drug concentration, GI50 is the concentration required to decrease % growth by 50%; TGI is the concentration required to decrease % growth by 100% and LC50 is the concentration required to decrease % growth by 150%.
# [3] = test system: IL-6; test: In vitro measurement of Interleukin-6 in human PBMC; assay type: cell-based; conditions: Table XVa summary
# Protocol: In Vitro Measurement of Interleukin-6 (IL-6)
# This assay determines the effect of test compounds on the production of IL-6 in human PBMC (Physiol. Res. 52, 593-598, 2003). Compounds were tested for their ability to inhibit the activity of IL-6 in human PBMC. PBMC were isolated from blood using BD Vacutainer CPT™ Cell preparation tube (BD Bio Science) and suspended in RPMI medium. The test compounds were pre-incubated with PBMC (0.5 million/incubation well) for 15 minutes at 37° C. and then stimulated with Lipopolysaccharide (Escherichia coli: B4; 1 μg/ml) for 18 hours at 37° C. in 5% CO2. The levels of IL-6 in cell culture medium were estimated using enzyme-linked immunosorbent assay performed in a 96 well format as per the procedure of the manufacturer (Cayman Chemical, Ann Arbor, USA).
# [4] = test system: HCT-116; test: Anti-cancer screen (MTT), HCT-116; assay type: cell-based; conditions: Homo sapiens
# Protocol: as §1, §2, §3, §4, §5, §6
# [5] = test system: TPA induced dermatitis; test: Psoriasis model, TPA induced dermatitis; assay type: in vivo; conditions: mice, topical on the ears
# Protocol: Inhibitory Activity in Psoriasis Model TPA induced dermatitis in mice was performed using the protocol described in Eur J Pharmacol 507, 253-259, 2005. Balb/c mice were acclimatized to laboratory conditions 5-7 days prior to the start of the experiment. They were randomly distributed to various groups based on body weight. The baseline ear thickness of the animal's both ears using thickness gauge was measured. For each animal 20 μl of that contains 2.5 μg of TPA was applied with help of micropipettor with disposable tips. Test compound was applied topically to both inner and outer surface of the both the ears i.e. left and right ear with acetone as control after 30 minutes 6 hours and 24 hours after application of TPA (20 μl). Ear thickness was measured after 6 and 24 hours in animals, while for ear weight ears were excised under anesthesia and weighed.
# [6] = test system: DSS Induced colitis; test: IBD-DSS model (DSS induced colitis); assay type: in vivo, mice; conditions: Table XVb summary
# Protocol: Inhibitory Activity in IBD-DSS Model
# DSS Induced colitis test was performed as described by Axelsson et al., 1998. Male Balb/c mice were selected in the age of 7-8 weeks for the study. Colitis in mice was induced by providing DSS (2%) in the drinking water from day 1 to 6. Mice were dosed from Day 1 to 6 with test compound suspended in vehicle containing 0.25% carboxymethyl cellulose and 0.5% Tween 80. The control animals received vehicle alone. Body weight and disease activity index was recorded daily during the experiment. After 6 days of treatment, animals were sacrificed; colon weight and colon length was recorded.
# [7] = 48 hours, MTT, read-out: GI50 (μM) NCI-H460
# [8] = Table XVb summary, for NCI, read-out: Cancer cell lines DU, HCT, NCI (Mean GI50, μm), NCI
# [9] = 48 hours, MTT, read-out: GI50 (μM) HCT-116
# [10] = Table XVb summary, for HCT, read-out: Cancer cell lines DU, HCT, NCI (Mean GI50, μm), HCT
Compound,inhibition at 1 µM [1],inhibition at 10 µM [1],"GI50 [2, 7]","GI50 [2, 8]",IL-6 at 10 μm [3],"GI50 [4, 9]","GI50 [4, 10]",Psoriasis-acute TPA induced dermatitis % inhibition Ear Wt [5],Psoriasis-acute TPA induced dermatitis % inhibition Ear thickness [5],IBD DAI [6]
"CCOC(=O)C1CCN(c2nc(C(F)(F)F)nc(-c3ccc(F)cc3)c2-c2cccc(S(N)(=O)=O)c2)CC1 [Example 59, Ethyl-1-[5-(3-aminosulfonylphenyl)-6-(4-fluorophenyl)-2-(trifluoromethyl)pyrimidin-4-yl]piperidine-4-carboxylate]",87%,92%,10.5 µM,10.5 µM,37,> 100 µM,> 100 µM,–,–,–
"NS(=O)(=O)c1cccc(-c2c(-c3ccc(F)cc3)nc(C(F)(F)F)nc2-n2ccnc2)c1 [Example 80, 3-[4-(4-Fluorophenyl)-6-(1H-imidazol-1-yl)-2-(trifluoromethyl)pyrimidin-5-yl]benzenesulfonamide]",50%,78%,> 100 µM,> 100 µM,–,> 100 µM,> 100 µM,18.9%,19.2%,35
